From PMC9503778, “Targeted Isolation of Antibiotic Brominated Alkaloids from the Marine Sponge Pseudoceratina durissima Using Virtual Screening and Molecular Networking” (Marine Drugs, 2022)
Values joined by “and” are separate entries in the source; they are usually repeats but may differ in a detail not shown here. Equal values may be shown once. Read-outs that look alike come from different tables or passages of the source.

Legend:
[1] = system: P. auruginosa (G-) strain ATCC 27853; assay: Antimicrobial growth inhibition (CO-ADD), P. aeruginosa; format: cell-based, Pseudomonas aeruginosa; settings: for % inhibition P. aeruginosa: 32 µg/mL; for MIC / inhibition at 32 µg/mL: Pseudomonas aeruginosa
Description: (§1) Compounds 1−3 and 5−12 were assayed against a selection of medically important pathogenic microorganisms (MRSA, E. coli, K. pneumoniae, A. baumanii, P. aeruginosa, C. albicans, C. neoformans), Table 4. […] To the best of our knowledge this compound had not been tested against any drug resistant strain of Gram-positive bacterium until this study.
(§2) The antimicrobial activity testing was performed by the Community for Antimicrobial Drug Discovery (CO-ADD). Compounds were assayed against a range of both Gram negative and Gram positive bacteria (see Supplementary Materials S3) including methicillin-resistant Staphylococcus aureus (MRSA) (G+), Escherichia coli (G-), Klebsiella pneumoniae (G-), Acinetobacter baumannii (G-), Pseudomonas aeruginosa (G-) together with two species of fungus (Candida albicans and Cryptococcus neoformans).
(§3) S3. Antimicrobial activity testing methodology
The compounds submitted to CO-ADD were evaluated in duplicate (n = 2) against seven microorganisms (five bacteria and two fungi) at a concentration of 32 µg/mL in a 384-well, non-binding surface plate (NBS) for each bacterial/fungal strain, keeping the final DMSO concentration to a maximum of 1% DMSO. All bacteria were cultured in cation-adjusted Mueller-Hinton broth (CAMHB) at 37 °C overnight. A sample of each culture was then diluted 40-fold in fresh broth and incubated at 37 °C for 1.5-3 h. The resultant mid-log phase cultures were diluted (CFU/mL measured by OD600), then added to each well of the compound containing plates, giving a cell density of 5x10^5 CFU/mL and a total volume of 50 µL. All the plates were covered and incubated at 37 °C for 18 h without shaking. […] Inhibition of bacterial growth was determined measuring absorbance at 600 nm (OD600) using a Tecan M1000 Pro mon-ochromator plate reader. […]
(§4) 2 h. The absorbance was measured using a Biotek Synergy HTX plate reader. The percentage of growth inhibition was calculated for each well, using negative control (medium only) and positive control (bacteria without inhibitors) on the same plate as the references. The significance of inhibition values was determined by modified Z-scores, calculated using the median and MAD of the samples (no controls) on the same plate. Samples with inhibition value above 80% and Z-score above 2.5 for either replicate (n = 2 on different plates) were classed as actives.
(§5) Colistin and vancomycin were used as positive bacterial inhibitor standards for Gram-negative and Gram-positive bac-teria, respectively. Fluconazole was used as a positive fungal inhibitor standard for C. albicans and C. neoformans. The antibiotics were provided in four concentrations, with two above and two below its MIC value, and plated into the first eight wells of column 23 of the 384-well NBS plates. The quality control (QC) of the assays was determined by the antimicrobial controls and the Z’-factor (using positive and negative controls). Each plate was deemed to fulfil the qual- […]
(§6) full growth inhibition at their highest concentration, and no growth inhibition at their lowest concentration. The seven […]
(§7) test microorganisms were Staphylococcus aureus MRSA (ATCC 43300), Escherichia coli (ATCC 25922), Klebsiella pneu-moniae (ATCC 700603), Acinetobacter baumanii (ATCC19606), Pseudomonas aeruginosa (ATCC 27853), Candida albicans (ATCC 90028) and Cryptococcus neoformans var. grubii (H99; ATCC 208821).
(§8) S4. Anthelmintic activity testing methodology
Dose-response evaluations were carried out to estimate the half-maximal inhibitory concentrations (IC50 values) for compounds against Haemonchus contortus (Haecon-5 strain) exsheathed third-stage larvae (xL3s). H. contortus were maintained in experimental sheep and procured in accordance with the institutional animal ethics guidelines and the regulations of Australia (permit no. 1714374; University of Melbourne). Immediately prior to use, third-stage larvae (L3s) were exsheathed and sterilised by incubation in 0.15% (v/v) bleach at 38 °C for 20 min, followed by washes in […]

[2] = system: C. albicans (yeast) ATCC 90028; assay: Antimicrobial growth inhibition (CO-ADD), C. albicans; format: cell-based, Candida albicans; settings: for MIC / inhibition at 32 µg/mL: Candida albicans; for % inhibition C. albicans: 32 µg/mL, duplicate (n = 2) values; for inhibition at 32 µg/mL: ATCC90028, read-out: % inhibition C. albicans, 32 µg/mL, duplicate (n = 2) values
Description: as §1, §2, §3
The compounds submitted to CO-ADD were evaluated in duplicate (n = 2) against seven microorganisms (five bacteria and two fungi) at a concentration of 32 µg/mL in a 384-well, non-binding surface plate (NBS) for each bacterial/fungal strain, keeping the final DMSO concentration to a maximum of 1% DMSO. All bacteria were cultured in cation-adjusted […]
Fungal strains were cultured for 3 days on Yeast Extract-Peptone Dextrose (YPD) agar at 30 °C. A yeast suspension of 1 x 10^6 to 5 x 10^6 CFU/mL (as determined by OD530) was prepared from five colonies. The suspension was subsequently diluted and added to each well of the compound-containing plates giving a final cell density of fungi suspension of 2.5 x 10^3 CFU/mL and a total volume of 50 µL. All plates were covered and incubated at 35 °C for 24 h without shaking. […]
as §4, §5, §6, §7, §8
Dose-response evaluations were carried out to estimate the half-maximal inhibitory concentrations (IC50 values) for compounds against Haemonchus contortus (Haecon-5 strain) exsheathed third-stage larvae (xL3s). H. contortus were maintained in experimental sheep and procured in accordance with the institutional animal ethics guidelines and the regulations of Australia (permit no. 1714374; University of Melbourne). Immediately prior to use, third-stage larvae (L3s) were exsheathed and sterilised by incubation in 0.15% (v/v) bleach at 38 °C for 20 min, followed by washes in sterile saline at room temperature (22-24 °C). […]

[3] = ATCC27853, ATCC 27853, read-out: MIC P. aeruginosa
[4] = ATCC90028, ATCC 90028, read-out: MIC C. albicans
[5] = ATCC27853, read-out: % inhibition P. aeruginosa, 32 µg/mL, duplicate (n = 2) values

SMILES | MIC [1, 3] [µg/mL] | MIC [2, 4] [µg/mL] | % inhibition P. aeruginosa ([1]; duplicate (n = 2) values) | % inhibition C. albicans [2] | inhibition at 32 µg/mL [2] [%] | inhibition at 32 µg/mL [1, 5] [%] | MIC ([1]; ATCC27853, read-out: MIC P. aeruginosa) [µg/mL] | MIC ([2]; ATCC90028, read-out: MIC C. albicans) [µg/mL] | inhibition at 32 µg/mL ([1]; ATCC27853, 32 µg/mL, duplicate (n = 2) values, read-out: % inhibition P. aeruginosa) [%]
COC1=C(Br)[C@H](O)[C@@]2(C=C1Br)CC(C(=O)NCCCOc1c(Br)cc(CCN)cc1Br)=NO2 [Compound 11, araplysillin I] | > 32 | > 32 | 0.3% and 8.0% | – | – | – | – | – | –
COC1=C(Br)[C@H](O)[C@@]2(C=C1Br)CC(C(=O)NCCCCCNC(=O)C1=NO[C@]3(C=C(Br)C(OC)=C(Br)[C@@H]3O)C1)=NO2 [Compound 3, homoaerothionin] | > 32 | > 32 | 10.4% and 2.2% | 6.3% | 3.4 | – | – | – | –
COC1=C(Br)[C@H](O)[C@@]2(C=C1Br)CC(C(=O)NCCCOc1c(Br)cc(CCNC(=O)C3=NO[C@]4(C=C(Br)C(OC)=C(Br)[C@@H]4O)C3)cc1Br)=NO2 [Compound 5, 11,17-deoxyfistularin-3] | > 32 | > 32 | 7.2% | 3.3% | 2.5 | 4.3 | – | – | –
COC1=C(Br)[C@H](O)[C@](O)(CC#N)C=C1Br [Compound 1, (+)-aeroplysinin-1] | – | – | 18.2% | 9.8% | 9.5 | 10.9 | > 32 | > 32 | –

The next lines start with results.

MIC [1, 3] [µg/mL] | MIC [2, 4] [µg/mL] | SMILES | % inhibition P. aeruginosa ([1]; duplicate (n = 2) values) | % inhibition C. albicans [2] | inhibition at 32 µg/mL [2] [%] | inhibition at 32 µg/mL [1, 5] [%] | MIC ([1]; ATCC27853, read-out: MIC P. aeruginosa) [µg/mL] | MIC ([2]; ATCC90028, read-out: MIC C. albicans) [µg/mL] | inhibition at 32 µg/mL ([1]; ATCC27853, 32 µg/mL, duplicate (n = 2) values, read-out: % inhibition P. aeruginosa) [%]
> 32 | > 32 | NC(=O)Cc1c(O)cc(Br)c(O)c1Br [Compound 9, subereaphenol A] | – | – | – | – | – | – | –
> 32 | > 32 | COC1(OC)C(Br)=CC(O)(CC(N)=O)C=C1Br [Compound 6, 2-(3,5-dibromo-1-hydroxy-4,4-dimethoxycyclohexa-2,5-dien-1-yl)acetamide] | 1.1% and 9.7% | 0.6% and 4.6% | – | – | – | – | –
> 32 | > 32 | COC1=C(Br)[C@H](O)[C@@]2(C=C1Br)CC(C(=O)NCCCCNC(=O)C1=NO[C@]3(C=C(Br)C(OC)=C(Br)[C@@H]3O)C1)=NO2 [Compound 2, aerothionin] | – | 0.5% and 4.2% | – | – | – | – | –
> 32 | > 32 | COc1c(Br)cc(CC#N)c(O)c1Br [Compound 8, 2-(3,5-dibromo-2-hydroxy-4-methoxyphenyl)acetonitrile] | 6.8% | – | – | – | – | – | 11.2
